Key:
[1] = tested on: TGF-β-stimulated SMAD3 phosphorylation in BEAS-2B cells; assay: Cellular ALK5 potency assay, inhibition of TGF-β stimulated pSMAD3 formation in BEAS-2B cells; assay type: cell-based; settings: Homo sapiens; inhibition of TGF-β stimulated pSMAD3 formation, BEAS-2B cells; read-out: BEAS2B pIC50 (converted)
In short: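 SMAD3 phosphorylation was measured by AlphaLISA after 30 min TGF-β stimulation (10 ng/mL final) of BEAS-2B cells preincubated 1 h with compound at 37 °C. Results given as pIC50.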

[2] = target: T1, recombinant human ALK5 (TGF-βR1) protein (Homo sapiens, UniProt P36897); assay: Biochemical ALK5 (TGF-βR1) assay to measure pKi (LANCE Ultra ULight kinase assay); settings: apparent pKi from pIC50 by Cheng-Prusoff, read-out: ALK5 pKi (converted)
T1 construct: purchased Life Technologies PR9075A
T1 sequence (P36897 34-503): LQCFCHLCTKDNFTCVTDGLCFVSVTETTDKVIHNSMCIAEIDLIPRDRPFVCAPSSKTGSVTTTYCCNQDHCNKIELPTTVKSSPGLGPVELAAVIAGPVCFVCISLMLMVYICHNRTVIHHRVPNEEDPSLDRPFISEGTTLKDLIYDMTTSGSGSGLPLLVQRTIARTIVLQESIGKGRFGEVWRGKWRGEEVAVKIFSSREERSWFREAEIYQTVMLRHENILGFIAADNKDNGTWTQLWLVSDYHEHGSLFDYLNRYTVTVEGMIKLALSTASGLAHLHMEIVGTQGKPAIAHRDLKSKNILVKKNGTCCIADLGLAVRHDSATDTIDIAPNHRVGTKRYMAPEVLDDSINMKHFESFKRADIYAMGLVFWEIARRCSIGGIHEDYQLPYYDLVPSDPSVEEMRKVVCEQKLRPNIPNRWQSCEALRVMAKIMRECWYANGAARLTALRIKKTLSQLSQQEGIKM
In short: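 Dose range 10 μM–25 pM; enzyme + compound 60 min RT; ATP added (5× stock 125 μM, 2 mM DTT); 60 min 37 °C; stop with EDTA + Eu anti-phospho-Topo IIα Thr1342 Ab; TR-FRET ex 320/340, em 665 nm. 4-param pIC50 → pKi (Cheng-Prusoff).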

## Cc1cccc(-c2[nH]ncc2-c2ccc3ncc(C(=O)N4CC(N5CCOCC5)C4)cc3n2)n1 [Compound 352, [6-[5-(6-methyl-2-pyridyl)-1H-pyrazol-4-yl]-1,5-naphthyridin-3-yl]-(3-morpholinoazetidin-1-yl)methanone]
[1]
  IC50: 200 to 1260 nM
[2]
  Ki: 3.98 to 31.6 nM

## Cc1cccc(-c2n[nH]cc2-c2ccc3ncc(NC(=O)CN4CCOCC4)cc3n2)n1 [Compound 353, N-[6-[3-(6-methyl-2-pyridyl)-1H-pyrazol-4-yl]-1,5-naphthyridin-3-yl]-2-morpholino-acetamide]
[1]
  IC50: 25.1 to 158 nM
[2]
  Ki: 0.0398 to 0.316 nM

## Cc1cccc(-c2n[nH]cc2-c2ccc3ncc(-c4c[nH]nn4)cc3n2)n1 [Compound 355, 2-[3-(6-methyl-2-pyridyl)-1H-pyrazol-4-yl]-7-(1H-triazol-4-yl)-1,5-naphthyridine]
[1]
  IC50: < 20 nM
[2]
  Ki: < 0.0316 nM

## Cc1cccc(-c2n[nH]cc2-c2ccc3ncc(-c4cn[nH]c4)c(C4CCCN4)c3c2)n1 (stereo not drawn) [Compound 356]
[1]
  IC50: 200 to 1260 nM
[2]
  Ki: 0.0398 to 0.316 nM

## Cc1cccc(-c2n[nH]cc2-c2ccc3ncc(N(C)CC4CNC4)cc3n2)n1 [Compound 357, N-(azetidin-3-ylmethyl)-N-methyl-6-[3-(6-methyl-2-pyridyl)-1H-pyrazol-4-yl]-1,5-naphthyridin-3-amine]
[1]
  IC50: 25.1 to 158 nM
[2]
  Ki: < 0.0316 nM

## Cc1cccc(-c2n[nH]cc2-c2ccc3ncc(NC(=O)CCCN4CCOCC4)cc3n2)n1 [Compound 358, N-[6-[3-(6-methyl-2-pyridyl)-1H-pyrazol-4-yl]-1,5-naphthyridin-3-yl]-4-morpholino-butanamide]
[1]
  IC50: 25.1 to 158 nM
[2]
  Ki: 0.0398 to 0.316 nM

## Cc1cccc(-c2nnn(Cc3ccccc3)c2-c2ccc3ncc(N4CCNCC4)cc3n2)n1 [Compound 359, 2-(1-benzyl-4-(6-methylpyridin-2-yl)-1H-1,2,3-triazol-5-yl)-7-(piperazin-1-yl)-1,5-naphthyridine]
[1]
  IC50: 25.1 to 158 nM
[2]
  Ki: 0.0398 to 0.316 nM

## Cc1cccc(-c2c(-c3ccc4ncc(N5CCCNCC5)cc4c3)nnn2Cc2ccccc2)n1 [Compound 360, 6-[1-benzyl-5-(6-methyl-2-pyridyl)triazol-4-yl]-3-(1,4-diazepan-1-yl)quinoline]
[1]
  IC50: 1580 to 10000 nM
[2]
  Ki: 0.398 to 3.16 nM

## Cc1cccc(-c2[nH]ncc2-c2ccc3ncc(C(=O)OCCN4CCCC4)cc3n2)n1 [Compound 361, 2-pyrrolidin-1-ylethyl 6-[5-(6-methyl-2-pyridyl)-1H-pyrazol-4-yl]-1,5-naphthyridine-3-carboxylate]
[1]
  IC50: 25.1 to 158 nM
[2]
  Ki: 0.398 to 3.16 nM

## Cc1cccc(-c2n[nH]cc2-c2ccc3ncc(N4CCn5nc(C6=CCNC6)nc5C4)cc3n2)n1 [Compound 362, 7-[2-(2,5-dihydro-1H-pyrrol-3-yl)-6,8-dihydro-5H-[1,2,4]triazolo[1,5-a]pyrazin-7-yl]-2-[3-(6-methyl-2-pyridyl)-1H-pyrazol-4-yl]-1,5-naphthyridine]
[1]
  IC50: 200 to 1260 nM
[2]
  Ki: 0.0398 to 0.316 nM

## Cc1cccc(-c2nc3ccccn3c2-c2ccc3ncc(N4CCCNCC4)cc3c2)n1 [Compound 363, 3-(1,4-diazepan-1-yl)-6-[2-(6-methyl-2-pyridyl)imidazo[1,2-a]pyridin-3-yl]quinoline]
[1]
  IC50: 25.1 to 158 nM
[2]
  Ki: 0.0398 to 0.316 nM

## CNC1CCN(c2cnc3ccc(-c4c[nH]nc4-c4cccc(C(C)C)n4)nc3c2)CC1 [Compound 364, 1-[6-[3-(6-isopropyl-2-pyridyl)-1H-pyrazol-4-yl]-1,5-naphthyridin-3-yl]-N-methyl-piperidin-4-amine]
[1]
  IC50: 25.1 to 158 nM
[2]
  Ki: 0.0398 to 0.316 nM

## Cc1cccc(-c2[nH]cnc2-c2ccc3ncc(Nc4ccc(N5CCN(C(C)C)CC5)cn4)cc3c2)n1 [Compound 365, N-[5-(4-isopropylpiperazin-1-yl)-2-pyridyl]-6-[5-(6-methyl-2-pyridyl)-1H-imidazol-4-yl]quinolin-3-amine]
[1]
  IC50: 25.1 to 158 nM
[2]
  Ki: 0.0398 to 0.316 nM

## Cc1cccc(-c2n[nH]cc2-c2ccc3ncc(-c4c(C)n[nH]c4C)cc3n2)n1 [Compound 366, 7-(3,5-dimethyl-1H-pyrazol-4-yl)-2-[3-(6-methyl-2-pyridyl)-1H-pyrazol-4-yl]-1,5-naphthyridine]
[1]
  IC50: 200 to 1260 nM
[2]
  Ki: 0.0398 to 0.316 nM

## Cc1cccc(-c2[nH]cnc2-c2ccc3ncc(-c4ccccn4)cc3c2)n1 [Compound 367, 6-[5-(6-methyl-2-pyridyl)-1H-imidazol-4-yl]-3-(2-pyridyl)quinoline]
[1]
  IC50: 25.1 to 158 nM
[2]
  Ki: 0.0398 to 0.316 nM

## Cc1cccc(-c2n[nH]cc2-c2ccc3ncc(N4CC(N(C)C)C4)cc3n2)n1 [Compound 368, N,N-dimethyl-1-[6-[3-(6-methyl-2-pyridyl)-1H-pyrazol-4-yl]-1,5-naphthyridin-3-yl]azetidin-3-amine]
[1]
  IC50: 25.1 to 158 nM
[2]
  Ki: < 0.0316 nM

## COC(=O)c1cccc(-c2cnc3ccc(-c4c[nH]nc4-c4cccc(C)n4)nc3c2)c1 [Compound 369, methyl 3-[6-[3-(6-methyl-2-pyridyl)-1H-pyrazol-4-yl]-1,5-naphthyridin-3-yl]benzoate]
[1]
  IC50: < 20 nM
[2]
  Ki: < 0.0316 nM

## Cc1cccc(-c2[nH]cnc2-c2ccc3ncc(C4=CC[C@H](NC(=O)C5CCNCC5)CC4)cc3c2)n1 [Compound 370, N-[(1R)-4-[6-[5-(6-methyl-2-pyridyl)-1H-imidazol-4-yl]-3-quinolyl]cyclohex-3-en-1-yl]piperidine-4-carboxamide]
[1]
  IC50: 1580 to 10000 nM
[2]
  Ki: 0.0398 to 0.316 nM

## COc1[nH]nc(-c2cccc(C)n2)c1-c1ccc2ncc(-c3cnn4c3NCC4)cc2n1 [Compound 371, 7-(2,3-dihydro-1H-imidazo[1,2-b]pyrazol-7-yl)-2-[5-methoxy-3-(6-methyl-2-pyridyl)-1H-pyrazol-4-yl]-1,5-naphthyridine]
[1]
  IC50: 200 to 1260 nM
[2]
  Ki: 0.398 to 3.16 nM

## Cc1cccc(-c2n[nH]cc2-c2ccc3ncc(CCC(=O)N4CCN(C(C)C)CC4)cc3n2)n1 [Compound 372, 1-(4-isopropylpiperazin-1-yl)-3-[6-[3-(6-methyl-2-pyridyl)-1H-pyrazol-4-yl]-1,5-naphthyridin-3-yl]propan-1-one]
[1]
  IC50: 25.1 to 158 nM
[2]
  Ki: 0.398 to 3.16 nM

## Cc1cccc(-c2nnn(Cc3ccccc3)c2-c2ccc3ncc(NCCN4CCN(C(C)C)CC4)cc3n2)n1 [Compound 373, 6-(1-benzyl-4-(6-methylpyridin-2-yl)-1H-1,2,3-triazol-5-yl)-N-(2-(4-isopropylpiperazin-1-yl)ethyl)-1,5-naphthyridin-3-amine]
[1]
  IC50: 200 to 1260 nM
[2]
  Ki: 0.0398 to 0.316 nM

## Cc1cccc(-c2n[nH]cc2-c2ccc3ncc(-c4ccc(O)nc4)cc3n2)n1 [Compound 374, 5-[6-[3-(6-methyl-2-pyridyl)-1H-pyrazol-4-yl]-1,5-naphthyridin-3-yl]pyridin-2-ol]
[1]
  IC50: 25.1 to 158 nM
[2]
  Ki: < 0.0316 nM

## Cc1cccc(-c2n[nH]cc2-c2ccc3ncc(NCC4CCCCN4)cc3n2)n1 (stereo not drawn) [Compound 375, 6-[3-(6-methyl-2-pyridyl)-1H-pyrazol-4-yl]-N-(2-piperidylmethyl)-1,5-naphthyridin-3-amine]
[1]
  IC50: 25.1 to 158 nM
[2]
  Ki: 0.0398 to 0.316 nM

## CNC(=O)[C@H]1CN(c2cnc3ccc(-c4nc[nH]c4-c4cccc(C)n4)cc3c2)CCN1 [Compound 376, (2R)-N-methyl-4-[6-[5-(6-methyl-2-pyridyl)-1H-imidazol-4-yl]-3-quinolyl]piperazine-2-carboxamide]
[1]
  IC50: 200 to 1260 nM
[2]
  Ki: 0.0398 to 0.316 nM

From patent publication US11590116B2 (THERAVANCE BIOPHARMA R&D IP, LLC, priority 2019, dated 2023)
